Source: patent publication US5912258A, “Thiadiazoleamide derivative and anti-ulcer drug” (Shiseido Co., Ltd., priority 1998, dated 1999)

What was measured:
[1] = system: Slc:ICR mice; parameters: species or system Male Slc:ICR mice; settings: mouse, in vivo
Method: AT: Single Dose Toxicity Pretest
Male Slc:ICR mice (5-week-old) were used. Each group has 3 to 5 mice and each mouse was fasted, but allowed free access to water, for 4 to 5 hours from 9 a.m. in the test day. Then, 2,000 mg/10 ml/kg of the sample compound dissolved or suspended in an aqueous solution of 0.5% sodium carboxymethylcellulose was orally administered thereto. To a control, only the vehicle was administered. […] The body weight was measured before and after the fasting as well as at the same time everyday. The dead animals were immediately subjected to autopsy and their organs were observed by naked eyes. Also, the living animals were sacrificed with ether or carbon dioxide one week after the administration and then their organs were observed by naked eyes.
The toxicity at the single dose of 2,000 mg/kg of the sample compound was expressed as being classified into 5 levels.
5: Mortality rate is 0%; no toxicity is found at all both in behavior and organs.
4: Mortality rate is 0%; while no toxicity is found in organs, slight toxicity is observed in behavior and body weight increase.
3: While there is a dead animal (though not all the animals are dead), no toxicity is found in organs.
2: Regardless of whether there is a dead animal or not, toxicity is found in organs.
1: All the animals are dead.

[2] = system: gastric corpus mucosa cells; assay: MTT: Cell Damaging and Protecting Effect Test; type: cell-based, male Japanese White rabbit; settings: rabbit gastric mucosa cells, 10^-4 M, 4 hours; smaller value is better; 100 µM
Text: MTT: Cell Damaging and Protecting Effect Test
It is confirmed that there is no toxicity in cell level. Those having toxicity in cell level are inappropriate as an anti-ulcer drug.
A male Japanese White rabbit (2.5 to 3 kg) was anesthetized to death by Nembutal™ and, immediately thereafter, its stomach was removed. The greater curvature of the stomach was incised so as to remove the stomach contents therefrom. After the mucosal surface was washed with HBSS (Hank's Balanced Salt Solution), the stomach in ice-cooled HBSS was transferred to a laboratory. Then, after the pyloric antrum was removed, the gastric corpus mucosa was separated by a spatula and then minced into 2 to 3 mm pieces in BME (Basal Medium Eagle). Thereafter, these pieces were shaken at 120 to 130 cycles/minute for 15 minutes at 37° C. in BME 60 ml containing 280 U/ml of dispase and 30 to 50 U/mil of collagenase. Here, the concentration of collagenase was appropriately changed for each lot in view of the state of cells. The pieces were washed twice with EBSS (Earle's Balanced Salt Solution) containing 1 mM of EDTA and then shaken in MEM (Minimum Essential Medium) containing 1 mM of EDTA at 37° C. for 5 minutes. Subsequently, they were shaken in the dispase and collagenase having the same concentrations as those mentioned above for 15 minutes so as to remove the supernatant and then further shaken at 37° C. for 50 to 60 minutes at 120 to 130 cycles/minute. Then, after being washed twice with HBSS, Ham F12 containing 2% of Ultrocer G™ was used to attain the concentration of 1×10^6 cells/ml. Thus formed suspension was dispensed in each well of a 96-well plate by 200 μl. The plate was incubated in the atmosphere composed of 5% CO2 and 95% air at 37° C. for three days so as to attain a confluent state and then subjected to MTT assay.
The sample compound was dissolved in DMSO so as to attain a concentration of 10^-2 M and then diluted with HBSS containing 2% of Ultrocer G™ so as to attain a final concentration of 10^-4 M. To each group, which 8 wells were used for, 10 μl of MTT reagent was added immediately after 100 μl of the medium in each well was exchanged for same volume of the resulting solution of the sample compound. After being incubated in an atmosphere composed of 5% CO2 and 95% air at 37° C. for 4 hours, thus formed solution was centrifuged and then its supernatant was discarded. Subsequently, 100 μl of 100% ethanol was added to the residue so as to dissolve MTT formazan. Then, the absorbance (OD: 570 to 630) was measured by a microplate reader. This method utilizes a phenomenon in which MTT is changed to MTT formazan only by mitochondria of living cells so as to change color.
The cell damaging or cell protecting effect of the sample compound at the final concentration of 10^-4 M was expressed as cell damaging rate (%) as follows:
cell damaging rate (%)={1-(absorbance in sample group/absorbance in control group)}×100
Accordingly, the smaller value is better in the cell damaging rate.

[3] = system: histamine-stimulated gastric acid secretion (pylorus-ligated rats); assay: VOL, TAO: Acid Secretion Inhibition Test in vivo; parameters: species or system Male Crj:Donryu rats; settings: rat, 100 mg/kg orally, histamine 30 mg/kg s.c.
Method: VOL, TAO: Acid Secretion Inhibition Test in vivo
Inhibitory effect on acid secretion in vivo is confirmed.
Male Crj:Donryu rats (7-week-old) were fasted overnight but allowed free access to water. In each group, 8 to 10 of these rats were used under urethane anesthesia (1.25 g/kg). The sample compound dissolved or suspended in an aqueous solution of 0.5% sodium carboxymethylcellulose or 0.05% Tween 80 was orally administered (100 mg/10 ml/kg). 30 minutes later, the abdomen of each was incised and the pylorus was ligated. 30 minutes after the ligation, 30 mg/kg of histamine dissolved in physiological saline was subcutaneously administered and, 3 hours thereafter, the rat was sacrificed with carbon dioxide. Immediately thereafter, each stomach was removed and the gastric contents were collected and each volume was determined. The total acid output was determined by titration of the gastric juice with 0.1N NaOH.
With respect to the gastric juice volume (VOL) and the total acid output (TAO), the effects obtained when 100 mg/kg of the sample compound had been administered were expressed as their respective inhibitory rates (%) as follows:
each inhibitory rate (%) {1-(value in sample group/value in control group)}×100

Compound | AT: toxicity at the single dose (5 levels) [1] | MTT: cell damaging rate [2] | TAO: total acid output inhibitory rate [3] | VOL: gastric juice volume inhibitory rate [3]
CC(C)c1ccc(C(=O)Nc2nnc(SCCN(C(C)C)C(C)C)s2)cc1 [Example 2, 2-(4-isopropylbenzoyl)amino-5-diisopropylaminoethylthio-1,3,4-thiadiazole] | 5 | -77% | – | –
CCN(CC)CCSc1nnc(NC(=O)c2ccc(OC/C=C(\C)CCC=C(C)C)cc2)s1 [Example 10, 2-(4-geranyloxybenzoyl)amino-5-diethylaminoethylthio-1,3,4-thiadiazole] | 5 | – | 44% | 36%
CC(C)=CCC/C(C)=C/COc1ccc(C(=O)Nc2nnc(SCCN3CCCCC3)s2)cc1 [Example 12, 2-(4-geranyloxybenzoyl)amino-5-piperidinoethylthio-1,3,4-thiadiazole] | 5 | – | – | –
CC(C)=CCC/C(C)=C/COc1ccc(C(=O)Nc2nnc(SCc3ccccn3)s2)cc1 [Example 14, 2-(4-geranyloxybenzoyl)amino-5-(2-pyridylmethyl)thio-1,3,4-thiadiazole] | 5 | – | – | –
CCSc1nnc(NC(=O)c2ccc(OC/C=C(\C)CCC=C(C)C)cc2)s1 [Example 15, 2-(4-geranyloxybenzoyl)amino-5-ethylthio-1,3,4-thiadiazole] | 5 | – | 19% | 10%
